# Laboratory results: patent US20170182047A9, “Post-Translational Regulation of Catalytic Activities of Cytochrome P450 46A1 and Uses Thereof” (The Board of Regents of the University of Texas System, priority 2007, published 2017)
# Target: T1, CYP27A1 (Homo sapiens, UniProt Q02318)
# T1 construct: Recombinant full-length human CYPs 46A1 and 27A1 and bovine CYP11A1 were expressed and purified; made in house
# T1 sequence (Q02318 34-531): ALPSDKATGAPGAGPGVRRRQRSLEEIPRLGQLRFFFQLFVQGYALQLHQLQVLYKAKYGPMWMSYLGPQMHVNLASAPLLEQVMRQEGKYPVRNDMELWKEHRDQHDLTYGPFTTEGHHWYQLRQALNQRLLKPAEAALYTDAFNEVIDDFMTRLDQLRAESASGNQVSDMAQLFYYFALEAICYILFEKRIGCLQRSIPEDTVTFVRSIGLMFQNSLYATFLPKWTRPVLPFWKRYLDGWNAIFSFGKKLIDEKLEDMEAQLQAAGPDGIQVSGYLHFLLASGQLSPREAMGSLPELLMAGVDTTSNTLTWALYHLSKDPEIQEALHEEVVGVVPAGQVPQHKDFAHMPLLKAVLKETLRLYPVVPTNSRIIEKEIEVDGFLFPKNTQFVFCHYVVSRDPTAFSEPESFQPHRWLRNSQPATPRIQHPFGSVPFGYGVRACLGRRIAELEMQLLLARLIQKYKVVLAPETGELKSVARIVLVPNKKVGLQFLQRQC
# Test: Spectral binding assay of antifungal azoles
# Settings: up to 100 μM
# Description: Titrations of CYP46A1 were carried out in 50 mM potassium phosphate buffer (KPi), pH 7.2, containing 100 mM NaCl and 0.02% Cymal 6. CYPs 11A1 and 27A1 were in 50 mM KPi without any additives. Antifungal drugs were added from 0.2-5 mM stocks in 50% methanol. The apparent Kd and maximal absorbance change were estimated by non-linear least squares fitting using the quadratic form of the single-site binding equation (9).
structure (smiles),measurement,value
C[C@@H](c1ncncc1F)[C@](O)(Cn1cncn1)c1ccc(F)cc1F [voriconazole],spectral response,only a very weak spectral shift was observed
